Reference: ChEMBL document CHEMBL5331051, “Cationic, amphipathic small molecules based on a triazine-piperazine-triazine scaffold as a new class of antimicrobial agents” (Eur J Med Chem, 2022)
Values after ≈ are worked out from the molar mass of the structure shown. Active and inactive are the calls of the source. No cut-off for these calls is given here.

Experiments:
[1] = system: Staphylococcus aureus; assay: Antibacterial activity against Staphylococcus aureus KCTC 1621 strain assessed as bacterial growth inhibition measured at 18 to 24 hrs in presence of 4.5 mM KCl by microdilution assay; assay type: functional; conditions: time 18-24 hrs
[2] = system: Escherichia coli; assay: Antibacterial activity against Escherichia coli KCTC 1682 strain assessed as bacterial growth inhibition measured at 18 to 24 hrs in presence of 20% human serum by microdilution assay; assay type: functional; conditions: time 18-24 hrs
[3] = system: Staphylococcus aureus; assay: Additive antibacterial activity against methicillin-resistant Staphylococcus aureus CCARM 3089 strain assessed as bacterial growth inhibition in presence of chloramphenicol by checkerboard assay; assay type: functional
[4] = system: Cell membrane; assay: Induction of cell membrane depolarization in Staphylococcus aureus assessed as increase in fluorescence intensity at 2 times MIC by SYTOX green staining based analysis
[5] = system: Staphylococcus aureus; assay: Antibacterial activity against methicillin-resistant Staphylococcus aureus CCARM 3089 strain assessed as bacterial growth inhibition measured at 18 to 24 hrs by microdilution assay; assay type: functional; conditions: time 18-24 hrs
[6] = system: Staphylococcus aureus; assay: Antibacterial activity against Staphylococcus aureus KCTC 1621 strain assessed as bacterial growth inhibition measured at 18 to 24 hrs in presence of 150 mM NaCl by microdilution assay; assay type: functional; conditions: time 18-24 hrs
[7] = system: Cell membrane; assay: Induction of inner membrane permeabilization in Escherichia coli ML-35 assessed as increase in […] at 2 times MIC by ONPG staining based analysis
[8] = system: Erythrocyte; assay: Hemolytic activity in sheep RBC assessed as minimal hemolytic concentration causing 10% hemolysis incubated for 1 hr by ELISA; assay type: toxicity, cell-based, Ovis aries
[9] = system: Escherichia coli; assay: Antibacterial activity against Escherichia coli KCTC 1682 strain assessed as bacterial growth inhibition measured after 6 hrs in presence of proteinase K by radial diffusion assay; assay type: functional, organism-based
[10] = system: Staphylococcus aureus; assay: Additive antibacterial activity against multidrug-resistant Staphylococcus aureus CCARM 3089 strain assessed as fractional inhibitory concentration index in presence of chloramphenicol by checkerboard assay; assay type: functional
[11] = system: Staphylococcus aureus; assay: Antibacterial activity against Staphylococcus aureus KCTC 1621 strain assessed as bacterial growth inhibition measured at 18 to 24 hrs by microdilution assay; assay type: functional; conditions: time 18-24 hrs
[12] = system: DNA; assay: Binding affinity to plasmid DNA (unknown origin) assessed as retardation of DNA migration at 4 to 8 ug/ml incubated for 1 hr by agarose gel electrophoresis method; assay type: nucleic-acid assay; conditions: dose 4-8 µg/ml
[13] = system: Staphylococcus aureus; assay: Antibacterial activity against Staphylococcus aureus KCTC 1621 strain assessed as bacterial growth inhibition measured at 18 to 24 hrs in presence of 2.5 mM CaCl2 by microdilution assay; assay type: functional; conditions: time 18-24 hrs
[14] = system: Escherichia coli; assay: Antibacterial activity against Escherichia coli KCTC 1682 strain assessed as bacterial growth inhibition measured at 18 to 24 hrs in presence of 6 uM NH4Cl by microdilution assay; assay type: functional; conditions: time 18-24 hrs
[15] = system: Escherichia coli; assay: Antibacterial activity against Escherichia coli KCTC 1682 strain assessed as bacterial growth inhibition measured after 6 hrs in presence of pepsin by radial diffusion assay; assay type: functional, organism-based
[16] = system: Staphylococcus aureus; assay: Additive antibacterial activity against methicillin-resistant Staphylococcus aureus CCARM 3089 strain assessed as chloramphenicol MIC by checkerboard assay; assay type: functional
[17] = system: Escherichia coli; assay: Antibacterial activity against Escherichia coli KCTC 1682 strain assessed as bacterial growth inhibition measured at 18 to 24 hrs in presence of 4.5 mM KCl by microdilution assay; assay type: functional; conditions: time 18-24 hrs
[18] = system: Staphylococcus aureus; assay: Antibacterial activity against methicillin-resistant Staphylococcus aureus CCARM 3090 strain assessed as bacterial growth inhibition measured at 18 to 24 hrs by microdilution assay; assay type: functional; conditions: time 18-24 hrs
[19] = system: RAW264.7; assay: Antiinflammatory activity in LPS-induced mouse RAW264.7 cells assessed as reduction in TNF alpha mRNA expression level at 20 ug/ml measured after 18 hrs by RT-PCR assay relative to control; assay type: functional, cell-based; conditions: dose 20.0 µg/ml
[20] = system: Escherichia coli; assay: Antibacterial activity against Escherichia coli KCTC 1682 strain assessed as bacterial growth inhibition measured at 18 to 24 hrs in presence of 1 mM MgCl2 by microdilution assay; assay type: functional; conditions: time 18-24 hrs
[21] = system: Staphylococcus aureus; assay: Antibacterial activity against methicillin-resistant Staphylococcus aureus CCARM 3095 strain assessed as bacterial growth inhibition measured at 18 to 24 hrs by microdilution assay; assay type: functional; conditions: time 18-24 hrs
[22] = system: Lipopolysaccharide (LPS); assay: Binding affinity to Escherichia coli O111:B4 lipopolysaccharide assessed as suppression of FTIC labeled LPS binding to mouse RAW264.7 cells at 20 ug/ml pretreated with LPS followed by compound addition by flow cytometer assay (reference value: 67.4%); assay type: cell-based; conditions: dose 20.0 µg/ml
[23] = system: Escherichia coli; assay: Antibacterial activity against Escherichia coli KCTC 1682 strain assessed as bacterial growth inhibition measured at 18 to 24 hrs in presence of 4 uM FeCl3 by microdilution assay; assay type: functional; conditions: time 18-24 hrs
[24] = system: Escherichia coli; assay: Antibacterial activity against Escherichia coli KCTC 1682 strain assessed as bacterial growth inhibition measured at 18 to 24 hrs in presence of 150 mM NaCl by microdilution assay; assay type: functional; conditions: time 18-24 hrs
[25] = system: Pseudomonas aeruginosa; assay: Synergistic antibacterial activity against multidrug-resistant Pseudomonas aeruginosa CCARM 2095 strain assessed as bacterial growth inhibition in presence of ciprofloxacin by checkerboard assay; assay type: functional
[26] = system: Staphylococcus aureus; assay: Synergistic antibacterial activity against multidrug-resistant Staphylococcus aureus CCARM 3089 strain assessed as oxacillin fractional inhibitory concentration by checkerboard assay; assay type: functional
[27] = system: Pseudomonas aeruginosa; assay: Synergistic antibacterial activity against multidrug-resistant Pseudomonas aeruginosa CCARM 2095 strain assessed as chloramphenicol MIC by checkerboard assay; assay type: functional
[28] = system: Pseudomonas aeruginosa; assay: Synergistic antibacterial activity against multidrug-resistant Pseudomonas aeruginosa CCARM 2095 strain assessed as oxacillin fractional inhibitory concentration by checkerboard assay; assay type: functional
[29] = system: Pseudomonas aeruginosa; assay: Synergistic antibacterial activity against multidrug-resistant Pseudomonas aeruginosa CCARM 2095 strain assessed as bacterial growth inhibition in presence of oxacillin by checkerboard assay; assay type: functional
[30] = system: Pseudomonas aeruginosa; assay: Synergistic antibacterial activity against multidrug-resistant Pseudomonas aeruginosa CCARM 2095 strain assessed as ciprofloxacin fractional inhibitory concentration by checkerboard assay; assay type: functional
[31] = system: Staphylococcus aureus; assay: Additive antibacterial activity against multidrug-resistant Staphylococcus aureus CCARM 3089 strain assessed as oxacillin fractional inhibitory concentration by checkerboard assay; assay type: functional
[32] = system: Staphylococcus aureus; assay: Synergistic antibacterial activity against methicillin-resistant Staphylococcus aureus CCARM 3089 strain assessed as oxacillin MIC by checkerboard assay; assay type: functional
[33] = system: Staphylococcus aureus; assay: Additive antibacterial activity against multidrug-resistant Staphylococcus aureus CCARM 3089 strain assessed as fractional inhibitory concentration index in presence of oxacillin by checkerboard assay; assay type: functional
[34] = system: Pseudomonas aeruginosa; assay: Synergistic antibacterial activity against multidrug-resistant Pseudomonas aeruginosa CCARM 2095 strain assessed as fractional inhibitory concentration index in presence of ciprofloxacin by checkerboard assay; assay type: functional
[35] = system: Pseudomonas aeruginosa; assay: Synergistic antibacterial activity against multidrug-resistant Pseudomonas aeruginosa CCARM 2095 strain assessed as fractional inhibitory concentration index in presence of chloramphenicol by checkerboard assay; assay type: functional
[36] = system: Staphylococcus aureus; assay: Synergistic antibacterial activity against multidrug-resistant Staphylococcus aureus CCARM 3089 strain assessed as ciprofloxacin fractional inhibitory concentration by checkerboard assay; assay type: functional
[37] = system: Staphylococcus aureus; assay: Synergistic antibacterial activity against methicillin-resistant Staphylococcus aureus CCARM 3089 strain assessed as fractional inhibitory concentration in presence of oxacillin by checkerboard assay; assay type: functional
[38] = system: Pseudomonas aeruginosa; assay: Synergistic antibacterial activity against multidrug-resistant Pseudomonas aeruginosa CCARM 2095 strain assessed as oxacillin MIC by checkerboard assay; assay type: functional

Row | SMILES | MIC [1] [µM] | MIC [2] [µM] | Activity [4] | MIC [5] [µM] | MIC [6] [µM] | Activity [7] | MHC [8] [µM] | Activity [9] | MIC [11] [µM] | Activity [12] | MIC [13] [µM] | MIC [14] [µM] | Activity [15] | MIC [17] [µM] | MIC [18] [µM] | Activity [19] | MIC [20] [µM] | MIC [21] [µM] | Flu intensity [22] [%] | MIC [23] [µM] | other results
1 | N=C(N)NCCNc1nc(NCCNC(=N)N)nc(N2CC(Cc3ccccc3)N(c3nc(NCCNC(=N)N)nc(NCCNC(=N)N)n3)CC2Cc2ccccc2)n1 (centres undefined) | 4.8 | 9.7 | inactive | 9.7 (≈ 8 µg/mL) | 4.8 | inactive | > 309.8 | Active | 4.8 (≈ 3.96 µg/mL) | Active | 9.6 | 9.7 | Active | 9.7 | 4.8 (≈ 3.96 µg/mL) | Active | 9.7 | 9.7 (≈ 8 µg/mL) | 21.1 | 19.4 | MIC [3]: 4 µg/mL; fractional inhibitory concentration index (FICI) [10]: 0.75; MIC [16]: 128 µg/mL; MIC [24]: 9.7 µM
2 | NCCN(CCN)c1nc(NCc2ccccc2)nc(N2CC(Cc3ccccc3)N(c3nc(NCc4ccccc4)nc(N(CCN)CCN)n3)CC2Cc2ccccc2)n1 (centres undefined) | 5.4 | 5.4 | inactive | 5.4 (≈ 4.52 µg/mL) | 5.4 | inactive | > 342.5 | Active | 5.4 (≈ 4.52 µg/mL) | Active | 5.4 | 5.4 | Active | 5.4 | 5.4 (≈ 4.52 µg/mL) | Active | 10.8 | 5.4 (≈ 4.52 µg/mL) | 8 | 10.8 | MIC [25]: 2 µg/mL; FIC [26]: 0.25; MIC [27]: 256 µg/mL; FIC [28]: 0.125; MIC [29]: 4 µg/mL; FIC [30]: 0.25; FIC [31]: 0.25; MIC [32]: 256 µg/mL; fractional inhibitory concentration index (FICI) [33]: 0.5; fractional inhibitory concentration index (FICI) [34]: 0.375; fractional inhibitory concentration index (FICI) [35]: 0.5; FIC [36]: 0.125; FIC [37]: 0.25; MIC [38]: 128 µg/mL; MIC [24]: 5.4 µM
3 | NCCCN(CCCN)c1nc(NCc2ccccc2)nc(N2CC(Cc3ccccc3)N(c3nc(NCc4ccccc4)nc(N(CCCN)CCCN)n3)CC2Cc2ccccc2)n1 (centres undefined) | 2.5 | 10 | inactive | 5 (≈ 4.47 µg/mL) | 2.5 | inactive | > 318.5 | Active | 2.5 (≈ 2.23 µg/mL) | Active | 5 | 5 | Active | 5 | 2.8 (≈ 2.5 µg/mL) | Active | 5 | 5 (≈ 4.47 µg/mL) | 13.2 | 5 | MIC [25]: 4 µg/mL; FIC [26]: 0.25; MIC [27]: 128 µg/mL; FIC [28]: 0.25; MIC [29]: 4 µg/mL; FIC [30]: 0.063; FIC [31]: 0.125; MIC [32]: 128 µg/mL; fractional inhibitory concentration index (FICI) [33]: 0.375; fractional inhibitory concentration index (FICI) [34]: 0.312; fractional inhibitory concentration index (FICI) [35]: 0.375; FIC [36]: 0.125; FIC [37]: 0.25; MIC [38]: 256 µg/mL; MIC [24]: 2.5 µM
4 | NCCCCNc1nc(NCCCCN)nc(N2CC(Cc3ccccc3)N(c3nc(NCCCCN)nc(NCCCCN)n3)CC2Cc2ccccc2)n1 (centres undefined) | 5.2 | 10.4 | inactive | 5.2 (≈ 4 µg/mL) | 5.2 | inactive | > 332.8 | Active | 5.2 (≈ 4 µg/mL) | Active | 10.4 | 10.4 | Active | 10.4 | 5.2 (≈ 4 µg/mL) | Active | 10.4 | 10.4 (≈ 8 µg/mL) | 19.5 | 10.4 | MIC [25]: 8 µg/mL; FIC [26]: 0.25; MIC [27]: 128 µg/mL; FIC [28]: 0.25; MIC [29]: 8 µg/mL; MIC [3]: 2 µg/mL; FIC [30]: 0.125; FIC [31]: 0.25; MIC [32]: 256 µg/mL; fractional inhibitory concentration index (FICI) [33]: 0.5; fractional inhibitory concentration index (FICI) [10]: 0.625; fractional inhibitory concentration index (FICI) [34]: 0.375; fractional inhibitory concentration index (FICI) [35]: 0.375; MIC [16]: 64 µg/mL; FIC [36]: 0.125; FIC [37]: 0.25; MIC [38]: 256 µg/mL; MIC [24]: 10.4 µM
5 | NCCNc1nc(NCCN)nc(N2CC(Cc3ccccc3)N(c3nc(NCCN)nc(NCCN)n3)CC2Cc2ccccc2)n1 (centres undefined) | 6.1 | 12.2 | inactive | 48.6 (≈ 31.9 µg/mL) | 6.1 | inactive | > 389.1 | Active | 6.1 (≈ 4.01 µg/mL) | Active | 6.1 | 6.1 | Active | 6.1 | 3 (≈ 1.97 µg/mL) | Active | 6.1 | 12.2 (≈ 8.01 µg/mL) | 21.4 | 12.2 | MIC [25]: 4 µg/mL; FIC [26]: 0.25; MIC [3]: 16 µg/mL; FIC [30]: 0.25; FIC [31]: 0.25; MIC [32]: 256 µg/mL; fractional inhibitory concentration index (FICI) [33]: 0.5; fractional inhibitory concentration index (FICI) [10]: 0.75; fractional inhibitory concentration index (FICI) [34]: 0.5; MIC [16]: 128 µg/mL; FIC [37]: 0.25; MIC [24]: 6.1 µM
